In PubChem BioAssay (NCI):
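Growth conditions: 96-well plates. Treatment: test compound, 48 hours, 5 concentrations. Analysis: linear interpolation between bracketing concentrations; unreached endpoints set to highest concentration. GI50 is the concentration that inhibits growth by half. TGI marks complete inhibition of growth.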

How the values were obtained:
Assay in all cases: NCI tumour cell line growth inhibition, 48 h
A498 renal = test system: A498 renal
OVCAR-4 ovarian = test system: OVCAR-4 ovarian
HCT-15 colon = test system: HCT-15 colon
MCF7 breast = test system: MCF7 breast
SK-MEL-28 melanoma = test system: SK-MEL-28 melanoma
OVCAR-8 ovarian = test system: OVCAR-8 ovarian
IGROV1 ovarian = test system: IGROV1 ovarian
OVCAR-5 ovarian = test system: OVCAR-5 ovarian
NCI-H226 lung = test system: NCI-H226 lung
SK-OV-3 ovarian = test system: SK-OV-3 ovarian
SN12C renal = test system: SN12C renal
786-0 renal = test system: 786-0 renal
MOLT-4 leukemia = test system: MOLT-4 leukemia
M14 melanoma = test system: M14 melanoma
SNB-75 CNS = test system: SNB-75 CNS
K-562 leukemia = test system: K-562 leukemia
MDA-MB-435 = test system: MDA-MB-435
HT29 colon = test system: HT29 colon
HOP-92 NSCLC = test system: HOP-92 NSCLC
NCI-H460 lung = test system: NCI-H460 lung
RXF 393 renal = test system: RXF 393 renal
OVCAR-3 ovarian = test system: OVCAR-3 ovarian
EKVX NSCLC = test system: EKVX NSCLC
KM12 colon = test system: KM12 colon
BT-549 breast = test system: BT-549 breast
UO-31 renal = test system: UO-31 renal
U251 CNS = test system: U251 CNS
SF-295 CNS = test system: SF-295 CNS
PC-3 prostate = test system: PC-3 prostate
SF-268 CNS = test system: SF-268 CNS
SNB-19 CNS = test system: SNB-19 CNS
HCC-2998 colon = test system: HCC-2998 colon
SW-620 colon = test system: SW-620 colon
CCRF-CEM leukemia = test system: CCRF-CEM leukemia
SK-MEL-2 melanoma = test system: SK-MEL-2 melanoma
MDA-MB-231 breast = test system: MDA-MB-231 breast
UACC-257 melanoma = test system: UACC-257 melanoma
SF-539 CNS = test system: SF-539 CNS
SK-MEL-5 melanoma = test system: SK-MEL-5 melanoma
TK-10 renal = test system: TK-10 renal
HOP-62 NSCLC = test system: HOP-62 NSCLC
HCT-116 colon = test system: HCT-116 colon
DU-145 prostate = test system: DU-145 prostate
T-47D breast = test system: T-47D breast
A549 NSCLC = test system: A549 NSCLC
NCI-H522 lung = test system: NCI-H522 lung
COLO 205 colon = test system: COLO 205 colon
UACC-62 melanoma = test system: UACC-62 melanoma
HL-60(TB) leukemia = test system: HL-60(TB) leukemia
HS 578T breast = test system: HS 578T breast
RPMI-8226 leukemia = test system: RPMI-8226 leukemia
NCI/ADR-RES ovarian = test system: NCI/ADR-RES ovarian
ACHN renal = test system: ACHN renal
LOX IMVI melanoma = test system: LOX IMVI melanoma
MALME-3M melanoma = test system: MALME-3M melanoma

Work on `CN1CCN(c2ccc(N3Cc4ccccc4OC4=C3C(=O)c3c(O)ccc(O)c3C4=O)cn2)CC1` yielded a GI50 (A498 renal) of 2150 nM, a TGI (A498 renal) of 4940 nM and a GI50 (OVCAR-4 ovarian) of 264 nM. It also gave a TGI (OVCAR-4 ovarian) of 855 nM, a GI50 (HCT-15 colon) of 186 nM and a TGI (HCT-15 colon) of 638 nM. For the same molecule, the GI50 (MCF7 breast) was 149 nM, the TGI (MCF7 breast) was 585 nM and the GI50 (SK-MEL-28 melanoma) was 282 nM. For the same molecule, the TGI (SK-MEL-28 melanoma) was 762 nM, the GI50 (OVCAR-8 ovarian) was 370 nM and the TGI (OVCAR-8 ovarian) was 4570 nM. It also gave a GI50 (IGROV1 ovarian) of 272 nM, a TGI (IGROV1 ovarian) of 1010 nM and a GI50 (OVCAR-5 ovarian) of 692 nM. For the same molecule, the TGI (OVCAR-5 ovarian) was 1950 nM, the GI50 (NCI-H226 lung) was 2260 nM and the TGI (NCI-H226 lung) was 12000 nM. The GI50 (SK-OV-3 ovarian) was 2920 nM, the TGI (SK-OV-3 ovarian) was 11400 nM and the GI50 (SN12C renal) was 316 nM. It also gave a TGI (SN12C renal) of 1100 nM, a GI50 (786-0 renal) of 191 nM and a TGI (786-0 renal) of 404 nM. For the same molecule, the GI50 (MOLT-4 leukemia) was 89.5 nM, the TGI (MOLT-4 leukemia) was 5380 nM and the GI50 (M14 melanoma) was 244 nM. It also gave a TGI (M14 melanoma) of 651 nM, a GI50 (SNB-75 CNS) of 907 nM and a TGI (SNB-75 CNS) of 5400 nM. For the same molecule, the GI50 (K-562 leukemia) was 71.3 nM, the TGI (K-562 leukemia) was 2530 nM and the GI50 (MDA-MB-435) was 234 nM. For the same molecule, the TGI (MDA-MB-435) was 575 nM, the GI50 (HT29 colon) was 209 nM and the TGI (HT29 colon) was 562 nM. The GI50 (HOP-92 NSCLC) was 230 nM, the TGI (HOP-92 NSCLC) was 499 nM and the GI50 (NCI-H460 lung) was 1170 nM. For the same molecule, the TGI (NCI-H460 lung) was 3830 nM, the GI50 (RXF 393 renal) was 164 nM and the TGI (RXF 393 renal) was 346 nM. The GI50 (OVCAR-3 ovarian) was 167 nM, the TGI (OVCAR-3 ovarian) was 469 nM and the GI50 (EKVX NSCLC) was 244 nM. The TGI (EKVX NSCLC) was 1240 nM, the GI50 (KM12 colon) was 1180 nM and the TGI (KM12 colon) was 3600 nM. For the same molecule, the GI50 (BT-549 breast) was 251 nM, the TGI (BT-549 breast) was 723 nM and the GI50 (UO-31 renal) was 163 nM. For the same molecule, the TGI (UO-31 renal) was 557 nM, the GI50 (U251 CNS) was 397 nM and the TGI (U251 CNS) was 1590 nM. The GI50 (SF-295 CNS) was 1870 nM, the TGI (SF-295 CNS) was 5000 nM and the GI50 (PC-3 prostate) was 385 nM. For the same molecule, the TGI (PC-3 prostate) was 1630 nM, the GI50 (SF-268 CNS) was 580 nM and the TGI (SF-268 CNS) was 2430 nM. The GI50 (SNB-19 CNS) was 742 nM, the TGI (SNB-19 CNS) was 2570 nM and the GI50 (HCC-2998 colon) was 1280 nM. It also gave a TGI (HCC-2998 colon) of 2780 nM, a GI50 (SW-620 colon) of 196 nM and a TGI (SW-620 colon) of 635 nM. The GI50 (CCRF-CEM leukemia) was 97.2 nM, the TGI (CCRF-CEM leukemia) was over 33500 nM and the GI50 (SK-MEL-2 melanoma) was 738 nM. It also gave a TGI (SK-MEL-2 melanoma) of 2230 nM, a GI50 (MDA-MB-231 breast) of 275 nM and a TGI (MDA-MB-231 breast) of 706 nM. For the same molecule, the GI50 (UACC-257 melanoma) was 426 nM, the TGI (UACC-257 melanoma) was 1170 nM and the GI50 (SF-539 CNS) was 233 nM. For the same molecule, the TGI (SF-539 CNS) was 595 nM, the GI50 (SK-MEL-5 melanoma) was 1270 nM and the TGI (SK-MEL-5 melanoma) was 2750 nM. For the same molecule, the GI50 (TK-10 renal) was 260 nM, the TGI (TK-10 renal) was 825 nM and the GI50 (HOP-62 NSCLC) was 1550 nM. For the same molecule, the TGI (HOP-62 NSCLC) was 4880 nM, the GI50 (HCT-116 colon) was 113 nM and the TGI (HCT-116 colon) was 326 nM. It also gave a GI50 (DU-145 prostate) of 360 nM, a TGI (DU-145 prostate) of 1290 nM and a GI50 (T-47D breast) of 184 nM. For the same molecule, the TGI (T-47D breast) was 706 nM, the GI50 (A549 NSCLC) was 2180 nM and the TGI (A549 NSCLC) was 6730 nM. It also gave a GI50 (NCI-H522 lung) of 32.2 nM, a TGI (NCI-H522 lung) of 134 nM and a GI50 (COLO 205 colon) of 126 nM. It also gave a TGI (COLO 205 colon) of 302 nM, a GI50 (UACC-62 melanoma) of 330 nM and a TGI (UACC-62 melanoma) of 1040 nM. The GI50 (HL-60(TB) leukemia) was 135 nM, the TGI (HL-60(TB) leukemia) was 445 nM and the GI50 (HS 578T breast) was 876 nM. The TGI (HS 578T breast) was over 100000 nM, the GI50 (RPMI-8226 leukemia) was 260 nM and the TGI (RPMI-8226 leukemia) was 901 nM. The GI50 (NCI/ADR-RES ovarian) was 403 nM, the TGI (NCI/ADR-RES ovarian) was over 100000 nM and the GI50 (ACHN renal) was 57.4 nM. The TGI (ACHN renal) was 203 nM, the GI50 (LOX IMVI melanoma) was 215 nM and the TGI (LOX IMVI melanoma) was 618 nM. For the same molecule, the GI50 (MALME-3M melanoma) was 89.3 nM and the TGI (MALME-3M melanoma) was 298 nM.
